Laboratory results published in patent publication US20240269230A1 (priority 2020, published 2024).
Values joined by “and” are separate entries in the source; they are usually repeats but may differ in a detail not shown here. Equal entries are not always repeated. Bridge positions count the residues as written; N and C are the ends. Ends that are not written are not given here. Peptide text beside a SMILES is read from it.

Key:
kOR [1] = biological target: T1, kOR (Mus musculus, UniProt P33534); assay: biochemical; assay type: binding
T1 sequence (P33534 whole entry): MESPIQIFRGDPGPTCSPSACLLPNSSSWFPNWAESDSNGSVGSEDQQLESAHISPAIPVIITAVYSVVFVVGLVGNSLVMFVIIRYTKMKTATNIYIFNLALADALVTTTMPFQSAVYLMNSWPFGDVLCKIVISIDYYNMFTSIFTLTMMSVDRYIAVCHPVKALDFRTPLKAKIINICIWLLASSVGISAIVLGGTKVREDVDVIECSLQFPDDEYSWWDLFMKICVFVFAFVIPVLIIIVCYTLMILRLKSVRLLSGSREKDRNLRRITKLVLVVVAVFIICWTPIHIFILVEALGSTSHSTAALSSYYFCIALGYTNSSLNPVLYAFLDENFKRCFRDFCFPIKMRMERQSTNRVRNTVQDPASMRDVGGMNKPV

[2] = mouse, in vivo, ip
hKOR = hKOR (Homo sapiens, UniProt P41145); settings: cited from earlier work
Chain of hKOR (P41145 whole entry): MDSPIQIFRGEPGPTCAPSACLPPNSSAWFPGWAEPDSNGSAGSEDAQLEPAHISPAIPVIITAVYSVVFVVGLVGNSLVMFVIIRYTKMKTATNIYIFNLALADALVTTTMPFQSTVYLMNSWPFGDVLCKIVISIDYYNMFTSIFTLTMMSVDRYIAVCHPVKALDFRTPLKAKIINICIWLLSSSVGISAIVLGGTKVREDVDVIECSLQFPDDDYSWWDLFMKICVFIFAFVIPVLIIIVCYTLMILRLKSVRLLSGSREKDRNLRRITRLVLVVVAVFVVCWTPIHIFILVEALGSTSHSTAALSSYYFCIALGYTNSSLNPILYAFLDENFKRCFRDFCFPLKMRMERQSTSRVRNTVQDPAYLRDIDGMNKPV

EAE mouse model = settings: mice; oral administration; cited from earlier work
kOR [3] = biological target: T1, kOR; assay: cell-based
kOR [4] = biological target: T1, kOR; assay type: cell-based
T-cell proliferation = settings: in vitro; IL-2-dependent mechanism; cited from earlier work

Question: For “vitri cyclotide: novel cyclotide isolated from Viola tricolor, GDPIPCGETCFTGKCYSETIGCTCEWPICTKN (not fully specified (bridges); ends and bridges not checked; also: cyclic, type not given here)”, which “Binding of isolated vitri peptide to the kOR” value (kOR [1]) is on record?
Answer: able to bind to the kOR

Question: For Cc1cc(-c2ccc(/N=N/c3ccc4c(S(=O)(=O)[O-])cc(S(=O)(=O)[O-])c(N)c4c3O)c(C)c2)ccc1/N=N/c1ccc2c(S(=O)(=O)[O-])cc(S(=O)(=O)[O-])c(N)c2c1O.[Na+].[Na+].[Na+].[Na+] [EvansBlue dye, reference compound], which “Biodistribution: brain” value [2] is on record?
Answer: strong signal

Question: And the “Biodistribution: spine” value [2]?
Answer: strong signal

Question: With CC(C)C[C@@H]1NC(=O)CNC(=O)[C@H](CC(N)=O)NC(=O)[C@H](CCCNC(=N)N)NC(=O)[C@H]([C@@H](C)O)NC(=O)[C@@H]2CSSC[C@@H]3NC(=O)[C@H]([C@@H](C)O)NC(=O)CNC(=O)CNC(=O)[C@H](C(C)C)NC(=O)[C@@H]4CSSC[C@H](NC(=O)[C@H](CCCCN)NC(=O)[C@H](CSSC[C@H](NC(=O)[C@H](C(C)C)NC(=O)[C@@H]5CCCN5C1=O)C(=O)NCC(=O)N[C@@H](CCC(=O)O)C(=O)N[C@@H]([C@@H](C)O)C(=O)N4)NC(=O)CNC(=O)[C@@H]1CCCN1C(=O)[C@H]([C@@H](C)O)NC(=O)[C@H](CC(N)=O)NC3=O)C(=O)N[C@@H](CO)C(=O)N[C@@H](Cc1c[nH]c3ccccc13)C(=O)N1CCC[C@H]1C(=O)N[C@@H](C(C)C)C(=O)N2 [[T20K]-kalata B1] (cyclo(CGETCVGGTCNTPGCKCSWPVCTRNGLPV); disulfide 1-15, 5-17, 10-22 (inferred); ring closure inferred) as the compound, how does the “Binding to and activation of hKOR” value (hKOR) read?
Answer: bind to and activate hKOR

Question: What about the “Symptoms of EAE” value (EAE mouse model) of the same compound?
Answer: significant delay and diminished symptoms of EAE

Question: And the EC50 (kOR [3])?
Answer: 17 µM

Question: What about the “Effect on the efficacy of U50,488 (cAMP)” value (kOR [3]) of the same compound?
Answer: only slightly affected the efficacy

Question: And the “Effect on the efficacy of dynorphin A 1-13 (cAMP)” value (kOR [3])?
Answer: increase in its efficacy

Question: And the “Effect on the potency of dynorphin A 1-13 (cAMP)” value (kOR [3])?
Answer: does not affect the potency

Question: What about the “Mode of action at the kOR” value (kOR [3]) of the same compound?
Answer: full agonist

Question: And the “Shift in the potency of U50,488 (cAMP)” value (kOR [3])?
Answer: nine-fold leftward shift in the potency

Question: And the “Effect on the efficacy of U50,488 to recruit beta arrestin” value (kOR [4])?
Answer: remarkable alleviation of the efficacy

Question: What about the “Effect on the potency of U50,488 to recruit beta arrestin” value (kOR [4]) of the same compound?
Answer: not impinging on its potency

Question: And the beta arrestin recruitment (kOR [4])?
Answer: no recruitment of beta arrestin could be detected

Question: What about the “Effect on the affinity of dynorphin A 1-13” value (kOR [1]) of the same compound?
Answer: only slightly affects the affinity

Question: And the “Effect on tritiated diprenorphine binding” value (kOR [1])?
Answer: negatively modulates tritiated diprenorphine

Question: What about the Ki (kOR [1]) of the same compound?
Answer: 2.7 µM

Question: With dynorphin A 1-13 [reference compound] as the compound, how does the “Receptor activation cAMP Emax (%)” value (kOR [3]) read?
Answer: 113% and 104% and 119% and 134% and 137% and 96%

Question: Which Ki (kOR [1]) does the source give for CC[C@H](C)[C@@H]1NC(=O)[C@H](C(C)C)NC(=O)[C@H]([C@@H](C)O)NC(=O)[C@H](CO)NC(=O)[C@H](Cc2ccccc2)NC(=O)[C@@H]2CSSC[C@@H]3NC(=O)[C@H](C(C)C)NC(=O)[C@H](CCCCN)NC(=O)[C@H](CC(N)=O)NC(=O)[C@H](CCCCN)NC(=O)[C@@H]4CSSC[C@H](NC(=O)[C@H](CO)NC(=O)[C@H](CCC(=O)O)NC(=O)CNC(=O)[C@H](CSSC[C@H](NC(=O)CNC1=O)C(=O)N[C@@H](CO)C(=O)N4)NC(=O)[C@@H]1CCCN1C(=O)[C@H]([C@@H](C)CC)NC(=O)[C@H](C(C)C)NC(=O)CNC(=O)[C@H](CC(N)=O)NC(=O)[C@H](CCCNC(=N)N)NC(=O)[C@H](Cc1ccc(O)cc1)NC3=O)C(=O)N[C@@H](C(C)C)C(=O)N[C@@H](Cc1ccccc1)C(=O)N[C@@H]([C@@H](C)CC)C(=O)N1CCC[C@H]1C(=O)N2 [caripe 10] (cyclo(CFSTVIGCSCKNKVCYRNGVIPCGESCVFIP); disulfide 1-15, 8-23, 10-27 (inferred); ring closure inferred) here?
Answer: 1 µM

Question: Which “Biodistribution: brain” value [2] does the source give for “conjugated [T20K]-kalata B1: [T20K]-kalata B1 conjugated to VivoTag 680 XL Fluorochrome (GLPVCGETCVGGTCNTPGCKCSWPVCTRN; ends and bridges not checked; also: conjugated to VivoTag 680 XL fluorochrome (place not given here); UniProt P56254 89-117, looked up, variant T20K)” here?
Answer: accumulated in the brain

Question: What about the “Biodistribution: spine” value [2] of the same compound?
Answer: also in the spine but to a far less extent

Question: For “kalata B1: circular plant peptide (cyclotide), GLPVCGETCVGGTCNTPGCTCSWPVCTRN (cyclo(GLPVCGETCVGGTCNTPGCTCSWPVCTRN); ends not checked; also: three disulfide bonds (cystine knot), pairing not given here; listed as Oldenlandia affinis)”, which T-cell proliferation (T-cell proliferation) is on record?
Answer: silence T-cell proliferation
